ChEMBL document CHEMBL5154929, “Optimization of the Natural Product Calothrixin A to Discover Novel Dual Topoisomerase I and II Inhibitors with Improved Anticancer Activity” (J Med Chem, 2022)
pIC50: −log10 of the molar value. Calls of active or inactive are those of the source. The rule behind the calls is not given here.

Assays:
A-375 [1] = assay: Induction of cell cycle arrest in human A-375 cells assessed as accumulation of cells at G2 phase at 40 nM incubated for 24 hrs by PI based flow cytometric analysis (RVB = 20.34%); assay type: functional
A-375 [2] = assay: Antimigratory activity in human A-375 cells assessed as reduction in cell migration incubated for 24 hrs by wound healing assay; assay type: functional, cell-based; conditions: dose 10-40 nM, DDE = dose-dependent effect
A-375 [3] = assay: Induction of cell cycle arrest in human A-375 cells assessed as accumulation of cells at G1 phase at 80 nM incubated for 24 hrs by PI based flow cytometric analysis (RVB = 52.94%); assay type: functional
[4] = Half life in Kunming mouse plasma at 10 mg/kg, iv administered as single dose measured after 5 to 360 mins by HPLC analysis; assay type: ADME, organism-based; conditions: time 5-360 min
A-375 [5] = assay: Induction of apoptosis in human A-375 cells at 80 nM measured after 24 hrs by Annexin V-FITC and DAPI staining based flow cytometric analysis; assay type: functional
A-375 [6] = assay: Induction of cell cycle arrest in human A-375 cells assessed as accumulation of cells at G2 phase at 80 nM incubated for 24 hrs by PI based flow cytometric analysis (RVB = 20.34%); assay type: functional
HCT-116 [7] = assay: Inhibition of colony formation in human HCT-116 cells at 20 to 40 nM incubated for 48 hrs by crystal violet staining method; assay type: functional, cell-based; conditions: dose 20-40 nM
A-375 [8] = assay: Antimigratory activity in human A-375 cells assessed as reduction in cell migration at 10 to 40 nM incubated for 24 hrs by crystal violet staining method; assay type: functional, cell-based; conditions: dose 10-40 nM
HCT-116 [9] = assay: Antiproliferative activity against doxorubicin sensitive human HCT-116 cells measured after 72 hrs by MTT assay; assay type: functional, cell-based; conditions: HCT-116, 72 h
A-375 [10] = assay: In vivo antitumor activity against human A-375 cells xenografted in BALB/c nude mouse assessed as shrinkage of tumor tissue treated after 7 days of tumor implantation on right flank subcutaneously at 10 to 20 mg/kg, iv administered once per 2 days for 14 days measured once every two days; assay type: functional, organism-based; conditions: dose 10-20 mg/kg, time 14.0 day
[11] = Tmax in Kunming mouse plasma at 10 mg/kg, iv administered as single dose measured after 5 to 360 mins by HPLC analysis; assay type: ADME, organism-based; conditions: time 5-360 min
MCF7 = assay: Cytotoxicity against human MCF7 cells expressing high level of topoisomerase I/II measured after 72 hrs by MTT assay; assay type: functional, cell-based; conditions: MCF7, 72 h
A-375 [12] = assay: Induction of cell cycle arrest in human A-375 cells assessed as accumulation of cells at G2 phase at 20 nM incubated for 24 hrs by PI based flow cytometric analysis (RVB = 20.34%); assay type: functional
A-375 [13] = assay: Induction of cell cycle arrest in human A-375 cells assessed as accumulation of cells at S phase at 20 nM incubated for 24 hrs by PI based flow cytometric analysis (RVB = 26.73%); assay type: functional
A-375 [14] = assay: Induction of apoptosis in human A-375 cells at 40 nM measured after 24 hrs by Annexin V-FITC and DAPI staining based flow cytometric analysis; assay type: functional
[15] = Cytotoxicity against human HEK293T cells measured after 72 hrs by MTT assay; assay type: toxicity, cell-based, HEK-293T
[16] = Toxicity in BALB/c nude mouse xenografted with human A-375 cells assessed as body weight loss treated after 7 days of tumor implantation on right flank subcutaneously at 10 to 20 mg/kg, iv administered once per 2 days for 14 days measured once every two days; assay type: organism-based; conditions: in vivo, 336 h, dose 10-20 mg/kg, time 14 day
[17] = Cmax in Kunming mouse plasma at 10 mg/kg, iv administered as single dose measured after 5 to 360 mins by HPLC analysis; assay type: ADME, organism-based; parameters: dose 10 mg/kg, time upper 360 min, time lower 5 min, route iv
A549 = assay: Cytotoxicity against human A549 cells expressing high level of topoisomerase I/II measured after 72 hrs by MTT assay; assay type: functional, cell-based; conditions: A549, 72 h
A-375 [18] = assay: Induction of apoptosis in human A-375 cells assessed as increase in expression level of C-caspase-9 measured after 24 hrs by Western blotting analysis; assay type: functional, cell-based; conditions: dose 40-120 nM, DDE = dose-dependent effect
A-375 [19] = assay: Induction of apoptosis in human A-375 cells assessed as increase in expression level of C-caspase-3 measured after 24 hrs by Western blotting analysis; assay type: functional, cell-based; conditions: dose 40-120 nM, DDE = dose-dependent effect
A-375 [20] = assay: Induction of apoptosis in human A-375 cells assessed as […] at 20 to 80 nM measured after 24 hrs by Annexin V-FITC and DAPI staining based flow cytometric analysis; assay type: functional; conditions: dose 20-80 nM
MDA-MB-231 = assay: Cytotoxicity against human MDA-MB-231 cells expressing high level of topoisomerase I/II measured after 72 hrs by MTT assay; assay type: functional, cell-based; conditions: MDA-MB-231, 72 h
[21] = In vivo acute toxicity in Balb/C mouse assessed as pathological damage in kidney at 50 mg/kg, iv administered once per 2 days for 7 days measured 24 hrs after last dose by H and E staining method; assay type: organism-based; conditions: 168 h, time 7 day
A-375 [22] = assay: (§1) In vivo induction of apoptosis in human A-375 cells xenografted in BALB/c nude mouse treated after 7 days of tumor implantation on right flank subcutaneously at 10 to 20 mg/kg, iv administered once per 2 days for 14 days by measuring TUNEL positive cells under a light microscope; assay type: functional, organism-based; conditions: dose 10-20 mg/kg, time 14.0 day
[23] = Clearance in Kunming mouse plasma at 10 mg/kg, iv administered as single dose measured after 5 to 360 mins by HPLC analysis; assay type: ADME, organism-based; conditions: time 5-360 min
SH-SY5Y = assay: Cytotoxicity against human SH-SY5Y cells expressing low level of topoisomerase I/II measured after 72 hrs by MTT assay; assay type: functional, cell-based
[24] = Metabolic stability in mouse plasma upto 5 hrs by HPLC-UV analysis; assay type: ADME, cell-free
[25] = In vivo acute toxicity in Balb/C mouse assessed as mortality at 10 to 50 mg/kg, iv administered once per 2 days for 7 days; assay type: organism-based; conditions: 168 h, dose 10-50 mg/kg, time 7 day
A-375 [26] = assay: Induction of apoptosis in human A-375 cells at 80 nM measured after 16 hrs by Annexin V-FITC and DAPI staining based flow cytometric analysis; assay type: functional
[27] = AUC in Kunming mouse plasma at 10 mg/kg, iv administered as single dose measured after 5 to 360 mins by HPLC analysis; assay type: ADME, organism-based; parameters: time upper 360 min, time lower 5 min, dose 10 mg/kg, route iv
[28] = Selectivity index, ratio of IC50 for human HEK293T cells to IC50 for human A-375 cells; assay type: toxicity; conditions: HEK293T cells and A-375 cells, read-out: Ratio IC50
[29] = In vivo acute toxicity in Balb/C mouse assessed as pathological damage in heart at 50 mg/kg, iv administered once per 2 days for 7 days measured 24 hrs after last dose by H and E staining method; assay type: organism-based; conditions: 168 h, time 7 day
A-375 [30] = assay: Induction of apoptosis in human A-375 cells assessed as increase in expression level of C-caspase-8 measured after 24 hrs by Western blotting analysis; assay type: functional, cell-based; conditions: dose 40-120 nM, DDE = dose-dependent effect
Calf thymus DNA = assay: Binding affinity to calf thymus DNA assessed as intercalation by measuring hypochromic shift at 292 nm by […]; assay type: nucleic-acid assay; conditions: Bos taurus
A-375 [31] = assay: as §1, with “mouse assessed as increase in C-caspase-3 level” for “mouse”; assay type: functional, organism-based; conditions: dose 10-20 mg/kg, time 14.0 day

O=C1c2c[n+]([O-])c3ccccc3c2C(=O)c2c1c1ccccc1n2Cc1cn([C@@H]2C[C@H](O)[C@@H](CO)O2)nn1
Activity (A-375 [1]): 27.87%
Activity (A-375 [2]): Dde
Activity (A-375 [3]): 34.99%
half-life [4]: 2.52 h
Activity (A-375 [5]): 36.21%
Activity (A-375 [6]): 6.88%
inhibition (HCT-116 [7]): Active
Activity (A-375 [8]): Active
pIC50 (HCT-116 [9]): 7.30
Activity (A-375 [10]): Active
Tmax [11]: 5 min
pIC50 (MCF7): 6.96
Activity (A-375 [12]): 29.19%
Activity (A-375 [13]): 38.36%
Activity (A-375 [14]): 23.26%
IC50 at 72 h [15]: 0.82 µM
Activity [16]: Non-Toxic
Cmax [17]: 27000 ng/mL
pIC50 (A549): 6.92
Activity (A-375 [18]): Dde
Activity (A-375 [19]): Dde
Activity (A-375 [20]): 38.36%
pIC50 (MDA-MB-231): 6.89
Activity [21]: Non-Toxic
Activity (A-375 [22]): Active
clearance [23]: 1 mL/min/kg
pIC50 (SH-SY5Y): 6.82
Stability [24]: Stable
Activity [25]: Non-Toxic
Activity (A-375 [26]): 23.78%
AUC [27]: 48000 ng·h/mL
selectivity ratio [28]: 40
Activity [29]: Non-Toxic
Activity (A-375 [30]): Dde
Activity (Calf thymus DNA): 44%
Activity (A-375 [31]): Active
